Measurements: patent US10456407B2, “Combination therapy for treating cancer” (Epizyme, Inc., priority 2015, dated 2019)

Columns and labels:
Type in all cases: cell-based
OCI-Ly19 cells = test: RT2 Glucocorticoid signaling PCR array, OCI-LY19 (Table 4a, printed OCT) cell line; details: vs DMSO
Excerpt: (§1) Expression levels of (A). Sestrin; (B). TNF and (C) GILZ normalized to DMSO controls for each cell line with the indicated single agent or combination.

RL cells = test: RT2 Glucocorticoid signaling PCR array, RL (Table 4e, printed RI) cell line; details: 4 days, Cpd44 1 uM, Pred 10-fold below 4-day IC50, vs DMSO, B2M-normalized
SU-DHL4 cells [1] = test: RT2 Glucocorticoid signaling PCR array, SU-DHL4 (SUDHL4) cell line (Table 4f); details: SUDHL4, 4 days, vs DMSO
SU-DHL4 cells [2] = test: as above; details: SUDHL4, 4 days, vs DMSO; remark: listed apart in the source
Excerpt: as §1

CCN(c1cc(-c2ccc(CN3CCOCC3)cc2)cc(C(=O)NCc2c(C)cc(C)[nH]c2=O)c1C)C1CCOCC1 [Compound 44]
ΔΔCT, AFF1 (OCI-Ly19 cells; gene AFF1): −0.008
ΔΔCT, AMPD3 (OCI-Ly19 cells; gene AMPD3): −0.654
ΔΔCT, ANXA4 (OCI-Ly19 cells; gene ANXA4): −0.154
ΔΔCT, CEBPA (OCI-Ly19 cells; gene CEBPA): −2.891
ΔΔCT, CREB1 (OCI-Ly19 cells; gene CREB1): 0.006
ΔΔCT, CREB3 (OCI-Ly19 cells; gene CREB3): 0.057
ΔΔCT, GHRHR (OCI-Ly19 cells; gene GHRHR): −4.040
ΔΔCT, GOT1 (OCI-Ly19 cells; gene GOT1): −0.084
ΔΔCT, PER1 (OCI-Ly19 cells; gene PER1): 0.674
ΔΔCT, RGS2 (OCI-Ly19 cells; gene RGS2): −0.968
ΔΔCT, SPSB1 (OCI-Ly19 cells; gene SPSB1): −0.097
ΔΔCT, TBL1XR1 (OCI-Ly19 cells; gene TBL1XR1): −0.043
ΔΔCT, TNF (OCI-Ly19 cells; gene TNF): −0.600
ΔΔCT, VLDLR (OCI-Ly19 cells; gene VLDLR): −0.280
ΔΔCT (RL cells; ADARB1 mRNA): −1.672
ΔΔCT (RL cells; AFF1 mRNA): −2.005
ΔΔCT (RL cells; AK2 mRNA): 0.268
ΔΔCT (RL cells; ANGPTL4 mRNA): −0.935
ΔΔCT (RL cells; ANXA4 mRNA): −0.562
ΔΔCT (RL cells; ARID68 mRNA): −1.220
ΔΔCT (RL cells; ATF4 mRNA): 0.003
ΔΔCT (RL cells; CEBPB mRNA): −0.004
ΔΔCT (RL cells; COL4A2 mRNA): −0.773
ΔΔCT (RL cells; CREB1 mRNA): 0.205
ΔΔCT (RL cells; CREB3L4 mRNA): −0.760
ΔΔCT (RL cells; CREB3 mRNA): −0.189
ΔΔCT (RL cells; CYB561 mRNA): −1.477
ΔΔCT (RL cells; DDIT4 mRNA): 0.461
ΔΔCT (RL cells; DUSP1 mRNA): −0.321
ΔΔCT (RL cells; EDN1 mRNA): −1.208
ΔΔCT (RL cells; EHD3 mRNA): −0.962
ΔΔCT (RL cells; FK8PS mRNA): 0.388
ΔΔCT (RL cells; GDPD1 mRNA): −0.772
ΔΔCT (RL cells; GLUL mRNA): −2.614
ΔΔCT (RL cells; GOT1 mRNA): 0.518
ΔΔCT (RL cells; H6PD mRNA): −0.673
ΔΔCT (RL cells; HNRPLL mRNA): 0.309
ΔΔCT (RL cells; IL1RN mRNA): −1.881
ΔΔCT (RL cells; IL6R mRNA): −0.515
ΔΔCT (RL cells; IL10 mRNA): −1.432
ΔΔCT (RL cells; KLF13 mRNA): −0.566
ΔΔCT (RL cells; LOX mRNA): −0.580
ΔΔCT (RL cells; MERTK mRNA): −4.419
ΔΔCT (RL cells; MT2A mRNA): 0.577
ΔΔCT (RL cells; NFKBIA mRNA): 0.854
ΔΔCT (RL cells; NR3C1 mRNA): 0.067
ΔΔCT (RL cells; PDCD7 mRNA): 0.006
ΔΔCT (RL cells; PDP1 mRNA): −0.989
ΔΔCT (RL cells; PER1 mRNA): 0.384
ΔΔCT (RL cells; PER2 mRNA): −0.361
ΔΔCT (RL cells; PIK3R1 mRNA): 0.373
ΔΔCT (RL cells; PLEKHF1 mRNA): 0.050
ΔΔCT (RL cells; POU2F1 mRNA): −0.027
ΔΔCT (RL cells; POU2F2 mRNA): −0.584
ΔΔCT (RL cells; RA5A3 mRNA): −0.009
ΔΔCT (RL cells; RGS2 mRNA): −0.162
ΔΔCT (RL cells; SESN1 mRNA): −1.697
ΔΔCT (RL cells; SGK1 mRNA): 0.801
ΔΔCT (RL cells; SLC19A2 mRNA): −0.797
ΔΔCT (RL cells; SNTA1 mRNA): 0.040
ΔΔCT (RL cells; SPHK1 mRNA): −0.781
ΔΔCT (RL cells; SPSB1 mRNA): −0.865
ΔΔCT (RL cells; STAT5A mRNA): 0.001
ΔΔCT (RL cells; STAT5B mRNA): −0.094
ΔΔCT (RL cells; TNF mRNA): −0.837
ΔΔCT (RL cells; TNFAIP3 mRNA): 0.886
ΔΔCT (RL cells; USP2 mRNA): −0.139
ΔΔCT (RL cells; USPS4 mRNA): −0.961
ΔΔCT (RL cells; VDR mRNA): −2.658
ΔΔCT (RL cells; ZHX3 mRNA): 4.661
ΔΔCT (RL cells; ZNF281 mRNA): 0.046
ΔΔCT MERTK (SU-DHL4 cells [1]): 1.977
ΔΔCT, ADARB1 (SU-DHL4 cells [1]): −1.229
ΔΔCT, AFF1 (SU-DHL4 cells [1]): −0.276
ΔΔCT, AMPD3 (SU-DHL4 cells [1]): −1.449
ΔΔCT, ANGPTL4 (SU-DHL4 cells [1]): −1.331
ΔΔCT, ANXA4 (SU-DHL4 cells [1]): −2.419
ΔΔCT, AQP1 (SU-DHL4 cells [1]): 0.331
ΔΔCT, ARID68 (SU-DHL4 cells [1]): −0.541
ΔΔCT, ASPH (SU-DHL4 cells [1]): −0.843
ΔΔCT, ATF4 (SU-DHL4 cells [1]): 0.146
ΔΔCT, CEBPA (SU-DHL4 cells [1]): −2.510
ΔΔCT, CREB1 (SU-DHL4 cells [1]): −0.313
ΔΔCT, CREB3 (SU-DHL4 cells [1]): −0.490
ΔΔCT, CREB3L4 (SU-DHL4 cells [1]): −0.655
ΔΔCT, CYB561 (SU-DHL4 cells [1]): −4.236
ΔΔCT, EHD3 (SU-DHL4 cells [1]): −1.998
ΔΔCT, FK8PS (SU-DHL4 cells [1]): 0.008
ΔΔCT, GDPD1 (SU-DHL4 cells [1]): −1.356
ΔΔCT, GOT1 (SU-DHL4 cells [1]): 0.065
ΔΔCT, H6PD (SU-DHL4 cells [1]): −0.549
ΔΔCT, HNRPLL (SU-DHL4 cells [1]): −0.471
ΔΔCT, IL6R (SU-DHL4 cells [1]): −1.903
ΔΔCT, IL10 (SU-DHL4 cells [1]): −1.895
ΔΔCT, KLF9 (SU-DHL4 cells [1]): −1.293
ΔΔCT, KLF13 (SU-DHL4 cells [1]): −0.534
ΔΔCT, MT2A (SU-DHL4 cells [1]): −0.309
ΔΔCT, NR3C1 (SU-DHL4 cells [1]): −0.234
ΔΔCT, PDCD7 (SU-DHL4 cells [1]): −0.127
ΔΔCT, PER1 (SU-DHL4 cells [1]): −0.524
ΔΔCT, PER2 (SU-DHL4 cells [1]): −0.854
ΔΔCT, PIK3R1 (SU-DHL4 cells [1]): −0.502
ΔΔCT, PLEKHF1 (SU-DHL4 cells [1]): −1.254
ΔΔCT, POU2F1 (SU-DHL4 cells [1]): −0.575
ΔΔCT, RGS2 (SU-DHL4 cells [1]): −0.632
ΔΔCT, RHOB (SU-DHL4 cells [1]): −1.561
ΔΔCT, SESN1 (SU-DHL4 cells [1]): −2.258
ΔΔCT, SLC10A6 (SU-DHL4 cells [1]): −4.180
ΔΔCT, SLC19A2 (SU-DHL4 cells [1]): −1.612
ΔΔCT, SLC22A5 (SU-DHL4 cells [1]): −0.775
ΔΔCT, SNTA1 (SU-DHL4 cells [1]): −0.847
ΔΔCT, SPSB1 (SU-DHL4 cells [1]): −0.624
ΔΔCT, STAT5B (SU-DHL4 cells [1]): −0.298
ΔΔCT, TBL1XR1 (SU-DHL4 cells [1]): −0.456
ΔΔCT, TNFAIP3 (SU-DHL4 cells [1]): 0.339
ΔΔCT, TSC22D3 (SU-DHL4 cells [1]): −0.002
ΔΔCT, USP2 (SU-DHL4 cells [1]): −0.688
ΔΔCT, USPS4 (SU-DHL4 cells [1]): 6.193
ΔΔCT, ZFP36 (SU-DHL4 cells [1]): −0.262
ΔΔCT, ZHX3 (SU-DHL4 cells [1]): −1.047
ΔΔCT, BCL6 (SU-DHL4 cells [2]): −1.019
ΔΔCT, CEBPB (SU-DHL4 cells [2]): 0.776
ΔΔCT, DDIT4 (SU-DHL4 cells [2]): −1.317
ΔΔCT, DUSP1 (SU-DHL4 cells [2]): −0.449
ΔΔCT, NFKBIA (SU-DHL4 cells [2]): −0.388
ΔΔCT, PDP1 (SU-DHL4 cells [2]): −0.911
ΔΔCT, POU2F2 (SU-DHL4 cells [2]): −0.539
ΔΔCT, RASA3 (SU-DHL4 cells [2]): −0.731
ΔΔCT, SPHK1 (SU-DHL4 cells [2]): −1.066
ΔΔCT, STAT5A (SU-DHL4 cells [2]): −0.587
ΔΔCT, TNF (SU-DHL4 cells [2]): −2.458
ΔΔCT, VDR (SU-DHL4 cells [2]): −2.155
ΔΔCT, VLDLR (SU-DHL4 cells [2]): 0.438
ΔΔCT, ZNF281 (SU-DHL4 cells [2]): −0.612
